Source: US20130203778A1, “PHARMACEUTICAL COMPOSITION COMPRISING A PYRIMIDINEONE DERIVATIVE” (Glenmark Pharmaceuticals S.A., priority 2010, published 2013)

Assays:
[1] = Qualitative solubility of Compound I in water and organic solvents; type: physicochemical
[2] = Solubility of Compound I with various hydrophilic carriers and in solid dispersion composition form at 25° C. (HPLC assay); type: physicochemical
Protocol: Buffers were prepared as per USP. Compound I (100 mg) equivalent was added to various buffers (100 ml) in presence of various hydrophilic carriers. The samples were sonicated for 15 minutes. A solid dispersion composition form of Compound I was also evaluated for solubility on similar lines. Quantification was done by assay method on HPLC by comparison with standard solution. The assay provided the relative amount of drug (mg/ml) in the sample solution. The results were extrapolated to represent the solubility in 900 ml of buffer solutions.
Preparation of Test solution: Compound I (100 mg) was added to various buffers (100 ml) in presence of various surfactants. The samples were sonicated for 15 minutes. Evaluation was done by assay method on HPLC by comparison with standard solution.
Mixture of 0.01M Ammonium Acetate Buffer and Acetonitrile in the ratio of 20:80% v/v.
Mixture of water and acetonitrile in the ratio of 20:80 v/v.
Column: Hypersil BDS C18, 150×4.6 mm, 5 μm
Column temperature: 25° C.

[3] = with Cetrimide, ratio (w/w) 1:10
[4] = with Cremophor EL, ratio (w/w) 1:10
[5] = with Gelucire 44/14, ratio (w/w) 1:10
[6] = with Hydroxypropyl beta-cyclodextrin, ratio (w/w) 1:10, BLD = Below limit of detection (0.01 ppm)
[7] = with Labrafil, ratio (w/w) 1:10
[8] = with Labrasol, ratio (w/w) 1:10
[9] = with Poloxamer 407, Compound I to carrier ratio (w/w) 1:1
[10] = with Sodium lauryl sulphate, ratio (w/w) 1:5, BLD = Below limit of detection (0.01 ppm)
[11] = with Tween 80, ratio (w/w) 1:10
[12] = with Tween 80, ratio (w/w) 1:30
[13] = with Vitamin E TPGS, ratio (w/w) 1:10
[14] = without hydrophilic carrier (1:0), BLD = Below limit of detection (0.01 ppm)

SMILES: COc1cccc(/C=C/c2nc3sccn3c(=O)c2-c2ccc(OC(F)(F)F)cc2)c1OCC1CC1 [Compound I, 7-{(E)-2-[2-(cyclopropylmethoxy)-3-methoxyphenyl]vinyl}-6-(4-trifluoromethoxyphenyl)-5H-[1,3]thiazolo-[3,2-a]pyrimidin-5-one]
- Solubility in acetone [1]: freely soluble
- Solubility in chloroform [1]: freely soluble
- Solubility in ethanol [1]: very slightly soluble
- Solubility in methanol [1]: slightly soluble
- Solubility in methylene dichloride [1]: freely soluble
- Solubility in water ([1]; aqueous media having different pH ranging over 1.2 to 6.8): practically insoluble
- Solubility, Acetate Buffer pH 4.5 [2, 3]: 0.27 mg/900 ml
- Solubility, Phosphate Buffer pH 6.8 [2, 3]: 0.45 mg/900 ml
- Solubility, Simulated gastric fluid pH 1.2 [2, 3]: 0.54 mg/900 ml
- Solubility, Acetate Buffer pH 4.5 [2, 4]: 2.61 mg/900 ml
- Solubility, Phosphate Buffer pH 6.8 [2, 4]: 2.52 mg/900 ml
- Solubility, Simulated gastric fluid pH 1.2 [2, 4]: 0.54 mg/900 ml
- Solubility, Acetate Buffer pH 4.5 [2, 5]: 1.17 mg/900 ml
- Solubility, Phosphate Buffer pH 6.8 [2, 5]: 0.99 mg/900 ml
- Solubility, Simulated gastric fluid pH 1.2 [2, 5]: 0.09 mg/900 ml
- Solubility, Acetate Buffer pH 4.5 ([2]; with HPMC, ratio (w/w) 1:5): 0.18 mg/900 ml
- Solubility, Phosphate Buffer pH 6.8 ([2]; with HPMC, ratio (w/w) 1:5): 0.81 mg/900 ml
- Solubility, Simulated gastric fluid pH 1.2 ([2]; with HPMC, ratio (w/w) 1:5): 0.72 mg/900 ml
- Solubility, Acetate Buffer pH 4.5 [2, 6]: BLD
- Solubility, Phosphate Buffer pH 6.8 [2, 6]: BLD
- Solubility, Simulated gastric fluid pH 1.2 [2, 6]: BLD
- Solubility, Acetate Buffer pH 4.5 [2, 7]: 0.27 mg/900 ml
- Solubility, Phosphate Buffer pH 6.8 [2, 7]: 0.18 mg/900 ml
- Solubility, Simulated gastric fluid pH 1.2 [2, 7]: 0.09 mg/900 ml
- Solubility, Acetate Buffer pH 4.5 [2, 8]: 0.18 mg/900 ml
- Solubility, Phosphate Buffer pH 6.8 [2, 8]: 0.72 mg/900 ml
- Solubility, Simulated gastric fluid pH 1.2 [2, 8]: 0.36 mg/900 ml
- Solubility, Acetate Buffer pH 4.5 [2, 9]: 0.18 mg/900 ml
- Solubility, Phosphate Buffer pH 6.8 [2, 9]: 0.09 mg/900 ml
- Solubility, Simulated gastric fluid pH 1.2 [2, 9]: 0.27 mg/900 ml
- Solubility, Acetate Buffer pH 4.5 [2, 10]: BLD
- Solubility, Phosphate Buffer pH 6.8 [2, 10]: BLD
- Solubility, Simulated gastric fluid pH 1.2 [2, 10]: BLD
- Solubility, Acetate Buffer pH 4.5 [2, 11]: 3.06 mg/900 ml
- Solubility, Phosphate Buffer pH 6.8 [2, 11]: 3.69 mg/900 ml
- Solubility, Simulated gastric fluid pH 1.2 [2, 11]: 0.45 mg/900 ml
- Solubility, Acetate Buffer pH 4.5 [2, 12]: 8.82 mg/900 ml
- Solubility, Phosphate Buffer pH 6.8 [2, 12]: 15.84 mg/900 ml
- Solubility, Simulated gastric fluid pH 1.2 [2, 12]: 1.44 mg/900 ml
- Solubility, Acetate Buffer pH 4.5 [2, 13]: 1.35 mg/900 ml
- Solubility, Phosphate Buffer pH 6.8 [2, 13]: 1.80 mg/900 ml
- Solubility, Simulated gastric fluid pH 1.2 [2, 13]: 0.63 mg/900 ml
- Solubility, Acetate Buffer pH 4.5 [2, 14]: BLD
- Solubility, Phosphate Buffer pH 6.8 [2, 14]: BLD
- Solubility, Simulated gastric fluid pH 1.2 [2, 14]: BLD**
